target: human RIP1 kinase domain (2-375) (Homo sapiens (Human), UniProt Q13546); test: biochemical; type: biochemical; conditions: Ki
Summary of the method: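 Ki^app comes from Morrison tight-binding fits of fractional activity versus compound concentration. Activity was read as ADP production, via tracer displacement lowering fluorescence polarization (633 nm laser). Conditions: 2 h, 50 nM insect-cell-expressed enzyme, 50 uM ATP, 30 mM MgCl2, 1 mM DTT, 0.5% DMSO, pH 7.5 Hepes.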

human RIP1 kinase domain (2-375), sequence (Q13546 2-375): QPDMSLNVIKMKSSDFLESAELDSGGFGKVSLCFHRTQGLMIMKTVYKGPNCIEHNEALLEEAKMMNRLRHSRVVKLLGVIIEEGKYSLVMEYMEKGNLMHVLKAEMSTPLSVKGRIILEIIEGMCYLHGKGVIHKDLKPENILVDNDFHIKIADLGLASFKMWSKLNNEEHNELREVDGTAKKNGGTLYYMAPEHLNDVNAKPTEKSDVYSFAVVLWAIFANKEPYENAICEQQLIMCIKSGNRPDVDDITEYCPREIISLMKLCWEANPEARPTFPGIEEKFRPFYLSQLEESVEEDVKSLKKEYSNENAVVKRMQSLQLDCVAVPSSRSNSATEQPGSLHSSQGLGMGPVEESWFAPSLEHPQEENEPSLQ

Ki | Compound
70 nM | CN1C(=O)[C@@H](NC(=O)c2cn3c(C(F)(F)F)cccc3n2)COc2ccccc21 (single isomer, unassigned) [Example 736]

same assay, conditions: Table 1; apparent Ki (Morrison tight-binding fit); 50 nM RIP1 kinase domain, 50 uM ATP, 2 hours incubation; read-out: RIP1 Ki

Compound | Ki
CN1C(=O)[C@@H](NC(=O)c2nnc3ccc(Cl)nn23)COc2ccccc21 [Example 52, (S)-6-chloro-N-(5-methyl-4-oxo-2,3,4,5-tetrahydrobenzo[b][1,4]oxazepin-3-yl)-[l,2,4]triazolo[4,3-b]pyridazinc-3-carboxamide] | 1200 nM
CN1C(=O)[C@@H](NC(=O)c2ccc3c(n2)CCCC3)COc2ccccc21 [Example 51, (S)-N-(5-methyl-4-oxo-2,3,4.5-tetrahydrobenzo[b][1,4]oxazepin-3-yl)-5,6,7,8-tetrahydroquinoline-2-carboxamide] | 8900 nM

same assay, conditions: Table 5; apparent Ki (Morrison tight-binding fit); 50 nM RIP1 kinase domain, 50 uM ATP, 2 hours incubation; read-out: Ki

Ki | Compound
84 nM | CN1C(=O)[C@@H](NC(=O)c2ncn(Cc3ccccc3)n2)CCn2nc(CCO)cc21 [Example 766, 1-benzyl-N-[(6S)-2-(2-hydroxyethyl)-4-methyl-5-oxo-7,8-dihydro-6H-pyrazolo[1,5-a][1,3]diazepin-6-yl]-1,2,4-triazole-3-carboxamide]

same assay, conditions: human RIP1 kinase domain (2-375), 50 uM ATP, 2 hours incubation, Transcreener ADP assay; read-out: RIP1 Ki

Ki | Compound
13.2 nM | Cc1cc2n(n1)CC[C@H](NC(=O)c1ncn(Cc3ccc(Cl)cc3)n1)C(=O)N2C [Example 170, (S)-1-(4-chlorobenzyl)-N-(2,4-dimethyl-5-oxo-5,6,7,8-tetrahydro-4H-pyrazolo[1,5-a][1,3]diazepin-6-yl)-1H-1,2,4-triazole-3-carboxamide]
61.7 nM | CN1C(=O)[C@@H](NC(=O)c2ncc3c(n2)C(C)(C)OC3)COc2ccccc21 [Example 217, (S)-7,7-dimethyl-N-(5-methyl-4-oxo-2,3,4,5-tetrahydrobenzo[b][1,4]oxazepin-3-yl)-5,7-dihydrofuro[3,4-d]pyrimidine-2-carboxamide]
986 nM | Cc1cc2n(n1)CC[C@H](NC(=O)c1ncn([C@H](C)c3ccccc3)n1)C(=O)N2C [Example 158, N-((S)-2,4-dimethyl-5-oxo-5,6,7,8-tetrahydro-4H-pyrazolo[1,5-a][1,3]diazepin-6-yl)-1-((R)-1-phenylethyl)-1H-1,2,4-triazole-3-carboxamide]
135 nM | CCC1Cc2c(C(=O)N[C@H]3COc4ccccc4N(C)C3=O)n[nH]c2CO1 (stereo partly drawn) [Example 186, 5-ethyl-N—((S)-5-methyl-4-oxo-2,3,4,5-tetrahydrobenzo[b][1,4]oxazepin-3-yl)-1,4,5,7-tetrahydropyrano[3,4-c]pyrazole-3-carboxamide]
149 nM | CN1C(=O)C(NC(=O)c2ncn(Cc3ccccc3)n2)CCCn2nc(C3CC3)cc21 (stereo not shown) [Example 104, 1-benzyl-N-(2-cyclopropyl-4-methyl-5-oxo-4,5,6,7,8,9-hexahydropyrazolo[1,5-a][1,3]diazocin-6-yl)-1H-1,2,4-triazole-3-carboxamide]

same assay, conditions: human RIP1 kinase domain (2-375), Transcreener ADP assay, 50 uM ATP, 2 hours incubation; read-out: RIP1 Ki

Ki | Compound
14.6 nM | CN1C(=O)[C@@H](NC(=O)c2ncn(Cc3cccc(Cl)c3Cl)n2)CCn2nc(C3CC3)cc21 [Example 306, (S)—N-(2-cyclopropyl-4-methyl-5-oxo-5,6,7,8-tetrahydro-4H-pyrazolo[1,5-a][1,3]diazepin-6-yl)-1-(2,3-dichlorobenzyl)-1H-1,2,4-triazole-3-carboxamide]
86.4 nM | CN1C(=O)[C@H](NC(=O)c2ncn(Cc3ccccc3)n2)CCn2nc(C3CC3(F)F)cc21 (stereo partly drawn) [Example 284, 1-benzyl-N-((6R)-2-(2,2-difluorocyclopropyl)-4-methyl-5-oxo-5,6,7,8-tetrahydro-4H-pyrazolo[1,5-a][1,3]diazepin-6-yl)-1H-1,2,4-triazole-3-carboxamide]
3810 nM | Cc1cc2n(n1)CC[C@@H](NC(=O)c1nnc(Cc3ccc(F)cc3)[nH]1)C(=O)N2C [Example 329, (R)—N-(2,4-dimethyl-5-oxo-5,6,7,8-tetrahydro-4H-pyrazolo[1,5-a][1,3]diazepin-6-yl)-5-(4-fluorobenzyl)-4H-1,2,4-triazole-3-carboxamide]
811 nM | CN1C(=O)C(NC(=O)c2ncn(CC3CC(F)(F)C3)n2)CCn2nc(C3CC3)cc21 (stereo not shown) [Example 269, N-(2-cyclopropyl-4-methyl-5-oxo-5,6,7,8-tetrahydro-4H-pyrazolo[1,5-a][1,3]diazepin-6-yl)-1-((3,3-difluorocyclobutyl)methyl)-1H-1,2,4-triazole-3-carboxamide]

same assay, conditions: read-out: RIP1 Ki

Compound | Ki
CN1C(=O)[C@@H](NC(=O)c2n[nH]c3c2CC(C(C)(C)C)CC3)COc2ccccc21 (stereo partly drawn) [Example 3, 5-(tert-butyl)-N—((S)-5-methyl-4-oxo-2,3,4,5-tetrahydrobenzo[b][1,4]oxazepin-3-yl)-4,5,6,7-tetrahydro-1H-indazole-3-carboxamide] | 68.8 nM
CC1CCc2n[nH]c(C(=O)N[C@H]3COc4ccccc4N(C)C3=O)c2C1 (stereo partly drawn) [Example 45, 5-methyl-N-((S)-5-methyl-4-oxo-2,3,4,5-tetrahydrobenzo[b][1,4]oxazepin-3-yl)-4,5,6,7-tetrahydro-2H-indazole-3-carboxamide] | 62.6 nM

same assay, conditions: tight-binding apparent inhibition constant; human RIP1 kinase domain (2-375) 50 nM, 50 uM ATP, 2 hours; read-out: Ki

Ki | Compound
8.5 nM | CN1C(=O)[C@@H](NC(=O)c2ncn(Cc3ccccc3)n2)CCn2nc(C[C@H]3CC3(F)F)cc21 [Example 547, 1-benzyl-N-(6S)-4-methyl-5-oxo-2-[(1 S)-2,2-difluorocyclopropylmethyl]-7,8-dihydro-6H-pyrazolo[1,5-a][1,3]diazepin-6-yl-1,2,4-triazole-3-carboxamide]
124 nM | CN1C(=O)[C@@H](NC(=O)c2nc3n(n2)C(c2cc(F)ccc2F)CCC3)CCn2nccc21 (stereo partly drawn) [Example 388, 5-(2,5-difluorophenyl)-N—((S)-4-methyl-5-oxo-5,6,7,8-tetrahydro-4H-pyrazolo[1,5-a][1,3]diazepin-6-yl)-5,6,7,8-tetrahydro-[1,2,4]triazolo[1,5-a]pyridine-2-carboxamide]
282 nM | CN1C(=O)[C@@H](NC(=O)c2nc3n(n2)C(C2CCCCC2)CCC3)CCn2nccc21 (stereo partly drawn) [Example 381, 5-cyclohexyl-N—((S)-4-methyl-5-oxo-5,6,7,8-tetrahydro-4H-pyrazolo[1,5-a][1,3]diazepin-6-yl)-5,6,7,8-tetrahydro-[1,2,4]triazolo[1,5-a]pyridine-2-carboxamide]
4.3 nM | CN1C(=O)[C@@H](NC(=O)c2nc3cccc(-c4ccccc4)n3n2)COc2ccccc21 [Example 373, (S)—N-(5-methyl-4-oxo-2,3,4,5-tetrahydrobenzo[b][1,4]oxazepin-3-yl)-5-phenyl-[1,2,4]triazolo[1,5-a]pyridine-2-carboxamide]
65.8 nM | CN1C(=O)[C@@H](NC(=O)c2nc3cccc(-c4ccccc4)c3s2)COc2ccccc21 [Example 391, (S)—N-(5-methyl-4-oxo-2,3,4,5-tetrahydrobenzo[b][1,4]oxazepin-3-yl)-7-phenylbenzo[d]thiazole-2-carboxamide]
2400 nM | CN1C(=O)[C@@H](NC(=O)c2ncn(CC3CCCO3)n2)CCn2nc(C3CC3)cc21 (stereo partly shown) [Example 470]
28 nM | CN1C(=O)[C@@H](NC(=O)c2nc3cccc(-c4ccccc4)n3n2)CCn2nccc21 [Example 375, (S)—N-(4-methyl-5-oxo-5,6,7,8-tetrahydro-4H-pyrazolo[1,5-a][1,3]diazepin-6-yl)-5-phenyl-[1,2,4]triazolo[1,5-a]pyridine-2-carboxamide]
444 nM | COC1CN(Cc2cc3n(n2)CCC(NC(=O)c2ncn(Cc4ccccc4)n2)C(=O)N3C)C1 (single isomer, unassigned) [Example 451, 1-benzyl-N-(2-((3-methoxyazetidin-1-yl)methyl)-4-methyl-5-oxo-5,6,7,8-tetrahydro-4H-pyrazolo[1,5-a][1,3]diazepin-6-yl)-1H-1,2,4-triazole-3-carboxamide]
27 nM | CC[C@H]1C[C@@H](Cn2cnc(C(=O)N[C@H]3CCn4nccc4N(C)C3=O)n2)C1 [Example 502, N—((S)-4-methyl-5-oxo-5,6,7,8-tetrahydro-4H-pyrazolo[1,5-a][1,3]diazepin-6-yl)-1-(((1R,3R)-3-ethylcyclobutyl)methyl)-1H-1,2,4-triazole-3-carboxamide]
50 nM | CC(C)Oc1cc2n(n1)CCC(NC(=O)c1ncn(Cc3ccccc3)n1)C(=O)N2C (stereo not shown) [Example 461, 1-Benzyl-N-(2-isopropoxy-4-methyl-5-oxo-5,6,7,8-tetrahydro-4H-pyrazolo[1,5-a][1,3]diazepin-6-yl)-1H-1,2,4-triazole-3-carboxamide]
555 nM | CN1C(=O)C(NC(=O)c2ncn(Cc3ccccc3)n2)CCn2nc(C(C)(C)F)cc21 (single isomer, unassigned) [Example 370, 1-benzyl-N-[2-(1-fluoro-1-methyl-ethyl)-4-methyl-5-oxo-7,8-dihydro-6H-pyrazolo[1,5-a][1,3]diazepin-6-yl]-1,2,4-triazole-3-carboxamide]
41 nM | CCc1cc2n(n1)CCC(NC(=O)c1ncn(Cc3ccccc3)n1)C(=O)N2C (stereo not shown) [Example 460, 1-Benzyl-N-(2-ethyl-4-methyl-5-oxo-5,6,7,8-tetrahydro-4H-pyrazolo[1,5-a][1,3]diazepin-6-yl)-1H-1,2,4-triazole-3-carboxamide]
290 nM | CN1C(=O)[C@@H](NC(=O)c2ncn(CC3CCCOC3)n2)CCn2nc(C3CC3)cc21 (stereo partly shown) [Example 478]
96.9 nM | Cc1cc(F)c2c(c1)OC[C@H](NC(=O)c1nc3n(n1)[C@H](C(C)C)CC3)C(=O)N2 (single isomer, unassigned) [Example 352]
6.9 nM | Cc1cc2n(n1)CC[C@H](NC(=O)c1ncn(Cc3cccc(Cl)c3)n1)C(=O)N2C [Example 521, 1-[(3-chlorophenyl)methyl]-N-(6S)-2,4-dimethyl-5-oxo-7,8-dihydro-6H-pyrazolo[1,5-a][1,3]diazepin-6-yl-1,2,4-triazole-3-carboxamide]
213 nM | O=C(N[C@H]1CCc2cc(F)cc(F)c2NC1=O)c1nc2n(n1)[C@@H](C(F)(F)F)CCC2 (single isomer, unassigned) [Example 429]

Reference: patent US10988459B2 (priority 2015, dated 2021)
